Experimental data reported in patent US20140163026A1, “8-ETHYL-6-(ARYL)PYRIDO[2,3-D]PYRIMIDIN-7(8H)-ONES FOR THE TREATMENT OF NERVOUS SYSTEM DISORDERS AND CANCER” (Afraxis Holdings, Inc., priority 2011, published 2014).

Assays:
Format in all cases: biochemical
[1] = biological target: PAK1 (Homo sapiens, UniProt Q13153); assay: In vitro PAK inhibition assay (SelectScreen, Ser/Thr 19 peptide)
Method: (§1) Compounds are screened in 1% DMSO (final) in the well. For 10 point titrations, 3-fold serial dilutions are conducted.
(§2) All Peptide/Kinase Mixtures are diluted to a 2× working concentration in the appropriate Kinase Buffer
The 2×PAK1/Ser/Thr 19 mixture is prepared in 50 mM HEPES pH 7.5, 0.01% BRIJ-35, 10 mM MgCl2, 1 mM EGTA.
(§3) This control yields 100% cleaved peptide in the Development Reaction.
(§4) The 100% Phosphorylation Control, which consists of a synthetically phosphorylated peptide of the same sequence as the peptide substrate, is designed to allow for the calculation of percent phosphorylation.
(§5) This control is designed to produce a 10-50%* phosphorylated peptide in the Kinase Reaction.
(§6) A known inhibitor control standard curve, 10 point titration, is run for each individual kinase on the same plate as the kinase to ensure the kinase is inhibited within an expected IC50 range previously determined.
(§7) Add the following solutions to a well in a 384-well plate: • 2.5 μL of 4× Test Compound OR (100 nL 100× Test Compound plus 2.4 μL kinase buffer) • 5 μL of 2× Peptide/Kinase (PAK) Mixture • 2.5 μL of 4×ATP Solution • 2. Shake the plate for 30-seconds • 3. Incubate the PAK Kinase Reaction at room temperature for 60-minutes • 4. Add 5 μL of Development Reagent Solution to each well • 5. Shake the plate for 30-seconds • 6. Incubate the Development Reaction for 60-minutes • 7. Determine the fluorescence using a fluorescence plate reader • 8. Analyze the fluorescence data
(§8) SelectScreen® Kinase Profiling Service uses XLfit from IDBS.
(§9) The representative IC50 value with a known inhibitor for each kinase was determined at the ATP bin nearest to the ATP Km app.

[2] = biological target: PAK2 (PAK65) (Homo sapiens, UniProt Q13177); assay: In vitro PAK inhibition assay (SelectScreen, Ser/Thr 20 peptide)
PAK2 (PAK65), sequence (Q13177 whole entry): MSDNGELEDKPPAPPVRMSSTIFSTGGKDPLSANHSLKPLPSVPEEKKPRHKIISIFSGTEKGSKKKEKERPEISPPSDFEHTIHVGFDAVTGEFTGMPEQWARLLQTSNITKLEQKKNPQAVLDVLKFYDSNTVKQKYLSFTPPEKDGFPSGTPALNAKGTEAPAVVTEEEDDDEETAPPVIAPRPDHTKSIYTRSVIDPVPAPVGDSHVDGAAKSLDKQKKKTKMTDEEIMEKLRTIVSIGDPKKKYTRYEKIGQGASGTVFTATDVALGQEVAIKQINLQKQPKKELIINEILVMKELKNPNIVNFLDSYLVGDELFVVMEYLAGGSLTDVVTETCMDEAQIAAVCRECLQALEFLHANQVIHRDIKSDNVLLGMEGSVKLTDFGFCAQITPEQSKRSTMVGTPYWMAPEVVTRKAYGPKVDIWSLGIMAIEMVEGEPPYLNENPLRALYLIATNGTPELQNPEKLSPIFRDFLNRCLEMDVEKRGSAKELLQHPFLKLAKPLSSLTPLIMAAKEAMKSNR
Method: as §1, §2
The 2×PAK2 (PAK65)/Ser/Thr 20 mixture is prepared in 50 mM HEPES pH 7.5, 0.01% BRIJ-35, 10 mM MgCl2, 1 mM EGTA. The final 10 μL Kinase Reaction consists of 0.29-6 ng PAK2 (PAK65) and 2 μM Ser/Thr 20 in 50 mM HEPES pH 7.5, 0.01% BRIJ-35, 10 mM MgCl2, 1 mM EGTA.
as §3, §4, §5, §6, §7, §8, §9

[3] = biological target: PAK4 (Homo sapiens, UniProt O96013); assay: as above
PAK4, sequence (O96013 whole entry): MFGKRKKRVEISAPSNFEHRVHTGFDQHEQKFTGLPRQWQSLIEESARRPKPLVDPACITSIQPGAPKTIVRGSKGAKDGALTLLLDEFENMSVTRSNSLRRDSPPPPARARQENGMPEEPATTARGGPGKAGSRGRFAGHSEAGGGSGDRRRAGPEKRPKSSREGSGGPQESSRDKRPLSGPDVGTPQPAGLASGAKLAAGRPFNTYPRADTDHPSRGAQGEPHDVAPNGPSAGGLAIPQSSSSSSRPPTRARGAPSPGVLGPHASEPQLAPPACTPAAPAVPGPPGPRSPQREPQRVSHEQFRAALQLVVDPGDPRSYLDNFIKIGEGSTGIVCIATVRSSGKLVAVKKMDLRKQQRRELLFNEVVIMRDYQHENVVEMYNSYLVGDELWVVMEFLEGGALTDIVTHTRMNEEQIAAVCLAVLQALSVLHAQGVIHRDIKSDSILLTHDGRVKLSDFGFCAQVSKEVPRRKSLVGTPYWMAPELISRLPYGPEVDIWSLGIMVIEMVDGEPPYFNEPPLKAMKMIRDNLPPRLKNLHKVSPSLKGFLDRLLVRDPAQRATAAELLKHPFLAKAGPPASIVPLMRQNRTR
Method: as §1, §2
The 2×PAK4/Ser/Thr 20 mixture is prepared in 50 mM HEPES pH 7.5, 0.01% BRIJ-35, 10 mM MgCl2, 1 mM EGTA. The final 10 μL Kinase Reaction consists of 0.1-0.75 ng PAK4 and 2 μM Ser/Thr 20 in 50 mM HEPES pH 7.5, 0.01% BRIJ-35, 10 mM MgCl2, 1 mM EGTA. After the 1 hour Kinase Reaction incubation, 5 μL of a 1:256 dilution of Development Reagent A is added.
as §3, §4
The minimum Emission Ratio in a screen is established by the 0% Inhibition Control, which contains active kinase. This control is designed to produce a 10-50%* phosphorylated peptide in the Kinase Reaction.
as §6
as §7, with “Bar-coded Corning, low volume NBS, black 384-well plate (Corning Cat. #3676) • 1. Add the” for “Add the”
SelectScreen® Kinase Profiling Service uses XLfit from IDBS. The dose response curve is curve fit to model number 205 (sigmoidal dose-response model).
The table below provides specifications and data around each kinase. The representative IC50 value with a known inhibitor for each kinase was determined at the ATP bin nearest to the ATP Km app.

[4] = biological target: PAK3 (Homo sapiens, UniProt O75914); assay: as above
PAK3, sequence (O75914 whole entry): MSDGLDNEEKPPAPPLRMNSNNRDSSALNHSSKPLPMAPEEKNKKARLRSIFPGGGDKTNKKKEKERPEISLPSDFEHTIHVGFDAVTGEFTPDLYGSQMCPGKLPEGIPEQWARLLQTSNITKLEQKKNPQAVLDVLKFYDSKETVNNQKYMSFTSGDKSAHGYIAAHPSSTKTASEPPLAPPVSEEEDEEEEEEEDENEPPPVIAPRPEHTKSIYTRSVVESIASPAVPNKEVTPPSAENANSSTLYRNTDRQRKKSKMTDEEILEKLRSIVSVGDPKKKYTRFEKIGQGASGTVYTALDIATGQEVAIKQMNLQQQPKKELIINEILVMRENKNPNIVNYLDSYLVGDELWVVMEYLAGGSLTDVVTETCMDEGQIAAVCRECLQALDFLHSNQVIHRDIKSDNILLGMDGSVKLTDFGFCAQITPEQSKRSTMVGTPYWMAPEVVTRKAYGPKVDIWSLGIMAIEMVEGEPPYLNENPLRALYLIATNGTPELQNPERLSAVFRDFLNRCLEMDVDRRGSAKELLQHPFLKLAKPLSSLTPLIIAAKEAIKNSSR
Method: as §1, §2
The 2×PAK3/Ser/Thr 20 mixture is prepared in 50 mM HEPES pH 7.5, 0.01% BRIJ-35, 10 mM MgCl2, 1 mM EGTA.
as §3, §4, §5, §6, §7, §8, §9

PAK1, sequence (Q13153 whole entry): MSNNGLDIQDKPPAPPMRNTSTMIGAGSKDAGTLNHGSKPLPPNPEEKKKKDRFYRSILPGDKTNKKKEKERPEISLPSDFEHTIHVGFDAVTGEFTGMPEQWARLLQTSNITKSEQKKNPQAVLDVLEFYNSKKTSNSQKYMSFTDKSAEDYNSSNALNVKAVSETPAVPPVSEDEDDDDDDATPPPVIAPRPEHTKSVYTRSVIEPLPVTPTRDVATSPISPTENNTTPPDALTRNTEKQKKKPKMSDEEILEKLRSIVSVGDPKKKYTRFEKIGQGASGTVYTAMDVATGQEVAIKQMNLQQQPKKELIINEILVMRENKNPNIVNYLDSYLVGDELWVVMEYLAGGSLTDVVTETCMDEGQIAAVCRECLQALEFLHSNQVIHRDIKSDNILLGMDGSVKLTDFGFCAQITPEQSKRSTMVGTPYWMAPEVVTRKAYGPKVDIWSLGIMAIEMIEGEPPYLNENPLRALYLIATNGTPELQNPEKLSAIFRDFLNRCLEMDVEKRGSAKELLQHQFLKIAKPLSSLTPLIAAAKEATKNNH

| Structure (SMILES) | IC50 [1] | IC50 [2] | IC50 [3] | IC50 [4] |
| --- | --- | --- | --- | --- |
| CCn1c(=O)c(-c2ccc(-c3cccs3)cc2Cl)cc2cnc(Nc3ccc(N4CCN(C)CC4)cc3)nc21 | < 50 nM | < 50 nM | ≥ 5 µM | 50 to 500 nM |
| CCn1c(=O)c(-c2ccc(C3CC3)cc2Cl)cc2cnc(Nc3ccc(N4CCN(C)CC4)cc3)nc21 | 50 to 500 nM | 50 to 500 nM | ≥ 5 µM | 50 to 500 nM |
| CCn1c(=O)c(-c2ccc(C3CC3)cc2C2CC2)cc2cnc(Nc3ccc(N4CCN(C)CC4)cc3)nc21 | 500 to 5000 nM | 500 to 5000 nM | ≥ 5 µM | 500 to 5000 nM |
| CCn1c(=O)c(-c2ccc(-c3nccs3)cc2Cl)cc2cnc(Nc3ccc(N4CCN(C)CC4)cc3)nc21 | < 50 nM | < 50 nM | 0.5 to 5 µM | < 50 nM |
| CCn1c(=O)c(-c2ccc(-c3ccncc3)s2)cc2cnc(Nc3ccc(N4CCN(C)CC4)cc3)nc21 | > 5000 nM | > 5000 nM | ≥ 5 µM | > 5000 nM |
| CCn1c(=O)c(-c2ccc(-c3ccon3)s2)cc2cnc(Nc3ccc(N4CCN(C)CC4)cc3)nc21 | > 5000 nM | > 5000 nM | ≥ 5 µM | > 5000 nM |
| CCn1c(=O)c(-c2ccc(-c3cn[nH]c3)cc2Cl)cc2cnc(Nc3ccc(N4CCN(C)CC4)cc3)nc21 | 50 to 500 nM | 50 to 500 nM | ≥ 5 µM | 50 to 500 nM |
| CCn1c(=O)c(-c2ccc(-c3cccnc3)cc2Cl)cc2cnc(Nc3ccc(N4CCNCC4)c(F)c3)nc21 | < 50 nM | < 50 nM | 0.5 to 5 µM | < 50 nM |
| CCOC(=O)c1nc(-c2ccc(-c3cc4cnc(Nc5ccc(N6CCN(C)CC6)cc5)nc4n(CC)c3=O)c(Cl)c2)no1 | < 50 nM | 50 to 500 nM | ≥ 5 µM | 50 to 500 nM |
| CCn1c(=O)c(-c2ccc(-c3cncnc3)cc2Cl)cc2cnc(Nc3ccc(N4CCNCC4)c(F)c3)nc21 | < 50 nM | < 50 nM | 0.5 to 5 µM | < 50 nM |
| CCn1c(=O)c(-c2ccc(-c3cncnc3)cc2Cl)cc2cnc(Nc3ccc(N4CCNCC4)cc3)nc21 | < 50 nM | < 50 nM | 0.5 to 5 µM | < 50 nM |
| CCn1c(=O)c(-c2ccc(-c3noc(C(F)(F)F)n3)cc2Cl)cc2cnc(Nc3ccc(N4CCN(C)CC4)cc3)nc21 | < 50 nM | < 50 nM | ≥ 5 µM | 50 to 500 nM |
| CCN1CCN(c2ccc(Nc3ncc4cc(-c5ccc(-c6cncnc6)cc5Cl)c(=O)n(CC)c4n3)cc2F)CC1 | < 50 nM | < 50 nM | 0.5 to 5 µM | < 50 nM |
| CCn1c(=O)c(-c2ccc(-c3cccnc3)cc2Cl)cc2cnc(Nc3ccc(N4CCNCC4)cc3)nc21 | < 50 nM | < 50 nM | 0.5 to 5 µM | < 50 nM |
| CCn1c(=O)c(-c2ccc(-c3cccnc3)cc2Cl)cc2cnc(Nc3ccc(N4CCN(C)CC4)c(F)c3)nc21 | < 50 nM | < 50 nM | 0.5 to 5 µM | < 50 nM |
| CCn1c(=O)c(-c2ccc(-c3cncnc3)cc2Cl)cc2cnc(Nc3ccc(N4CCN(C)CC4)c(F)c3)nc21 | < 50 nM | < 50 nM | ≥ 5 µM | < 50 nM |
| CCn1c(=O)c(-c2ccc(-c3cncnc3)cc2Cl)cc2cnc(Nc3ccc(N4CCN(C(C)C)CC4)c(F)c3)nc21 | < 50 nM | < 50 nM | ≥ 5 µM | < 50 nM |
| CCn1c(=O)c(-c2ccc(-c3cncnc3)cc2Cl)cc2cnc(Nc3ccc(N4CCN(C(C)C)CC4)cc3)nc21 | < 50 nM | < 50 nM | 0.5 to 5 µM | < 50 nM |
| CCN1CCN(c2ccc(Nc3ncc4cc(-c5ccc(-c6cccnc6)cc5Cl)c(=O)n(CC)c4n3)cc2)CC1 | < 50 nM | < 50 nM | 0.5 to 5 µM | < 50 nM |

| Structure (SMILES) | IC50 [1] | IC50 [2] | IC50 [3] | IC50 [4] |
| --- | --- | --- | --- | --- |
| CCn1c(=O)c(-c2ccc(-c3cncs3)cc2Cl)cc2cnc(Nc3ccc(N4CCNCC4)cc3)nc21 | < 50 nM | < 50 nM | 0.5 to 5 µM | < 50 nM |
| CCn1c(=O)c(-c2ccc(-c3noc(C)n3)cc2Cl)cc2cnc(Nc3ccc(N4CCN(C)CC4)cc3)nc21 | < 50 nM | < 50 nM | 0.5 to 5 µM | < 50 nM |
| CCn1c(=O)c(-c2ccc(-c3cccnc3)cc2Cl)cc2cnc(Nc3ccc(N4CCN(C(C)C)CC4)c(F)c3)nc21 | < 50 nM | < 50 nM | ≥ 5 µM | < 50 nM |
| CCN1CCN(c2ccc(Nc3ncc4cc(-c5ccc(-c6cncnc6)cc5Cl)c(=O)n(CC)c4n3)cc2)CC1 | < 50 nM | < 50 nM | 0.5 to 5 µM | < 50 nM |
| CCn1c(=O)c(-c2ccc(-c3cncs3)cc2Cl)cc2cnc(Nc3ccc(N4CCNCC4)c(F)c3)nc21 | < 50 nM | < 50 nM | 0.5 to 5 µM | < 50 nM |
| CCn1c(=O)c(-c2ccc(-c3cncs3)cc2Cl)cc2cnc(Nc3ccc(N4CCN(C)CC4)c(F)c3)nc21 | < 50 nM | < 50 nM | ≥ 5 µM | < 50 nM |
| CCn1c(=O)c(-c2ccc(-c3cncs3)cc2Cl)cc2cnc(Nc3ccc(N4CCN(C(C)C)CC4)c(F)c3)nc21 | < 50 nM | < 50 nM | ≥ 5 µM | < 50 nM |
| CCn1c(=O)c(-c2ccc(-c3noc(C)n3)cc2Cl)cc2cnc(Nc3ccc(N4CCNCC4)cc3)nc21 | < 50 nM | < 50 nM | 0.05 to 0.5 µM | < 50 nM |
| CCn1c(=O)c(-c2ccc(-c3scnc3C)cc2Cl)cc2cnc(Nc3ccc(N4CCN(C)CC4)cc3)nc21 | < 50 nM | < 50 nM | ≥ 5 µM | < 50 nM |
| CCN1CCN(c2ccc(Nc3ncc4cc(-c5ccc(-c6cncs6)cc5Cl)c(=O)n(CC)c4n3)cc2F)CC1 | < 50 nM | < 50 nM | ≥ 5 µM | 50 to 500 nM |
| CCn1c(=O)c(-c2ccc(-c3scnc3C)cc2Cl)cc2cnc(Nc3ccc(N4CCN(C(C)C)CC4)cc3)nc21 | < 50 nM | < 50 nM | ≥ 5 µM | 50 to 500 nM |
| CCn1c(=O)c(-c2ccc(-c3ncccn3)cc2Cl)cc2cnc(Nc3ccc(N4CCN(C)CC4)cc3)nc21 | < 50 nM | < 50 nM | 0.5 to 5 µM | < 50 nM |
| CCn1c(=O)c(-c2ccc(-c3cnc(C)s3)cc2Cl)cc2cnc(Nc3ccc(N4CCN(C)CC4)cc3)nc21 | < 50 nM | < 50 nM | ≥ 5 µM | < 50 nM |
| CCn1c(=O)c(-c2ccc(-c3noc(C)n3)cc2Cl)cc2cnc(Nc3ccc(C4CCNCC4)cc3)nc21 | – | – | – | < 50 nM |
| CCn1c(=O)c(-c2ccc(-c3cnc(C)s3)cc2Cl)cc2cnc(Nc3ccc(C4CCNCC4)cc3)nc21 | – | – | – | 50 to 500 nM |
| CCn1c(=O)c(-c2ccc(-c3cccnc3C)cc2Cl)cc2cnc(Nc3ccc(C4CCNCC4)cc3)nc21 | – | – | – | 50 to 500 nM |
| CCn1c(=O)c(-c2ccc(-c3ccnc(C)c3)cc2Cl)cc2cnc(Nc3ccc(C4CCNCC4)c(F)c3)nc21 | 50 to 500 nM | 50 to 500 nM | – | – |
| CCn1c(=O)c(-c2ccc(-c3cccnc3F)cc2Cl)cc2cnc(Nc3ccc(C4CCNCC4)cc3)nc21 | – | – | 0.5 to 5 µM | – |
